# Measured values published in PubChem BioAssay (NCI).
#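 Cultured in 96-well plates, cells were exposed to test compound for 48 hours across five concentrations. Here, GI50 denotes the concentration required for 50% inhibition of growth. TGI: total growth inhibition.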
# How the values were obtained:
# Assay in all cases: NCI-60 cell line screen, 48 h
# T-47D breast = test system: T-47D breast
# NCI-H522 lung = test system: NCI-H522 lung
# SF-268 CNS = test system: SF-268 CNS
# SK-OV-3 ovarian = test system: SK-OV-3 ovarian
# OVCAR-8 ovarian = test system: OVCAR-8 ovarian
# M14 melanoma = test system: M14 melanoma
# HOP-92 NSCLC = test system: HOP-92 NSCLC
# SF-539 CNS = test system: SF-539 CNS
# LOX IMVI melanoma = test system: LOX IMVI melanoma
# UACC-62 melanoma = test system: UACC-62 melanoma
# TK-10 renal = test system: TK-10 renal
# SN12C renal = test system: SN12C renal
# RPMI-8226 leukemia = test system: RPMI-8226 leukemia
# MDA-MB-468 breast = test system: MDA-MB-468 breast
# 786-0 renal = test system: 786-0 renal
# MOLT-4 leukemia = test system: MOLT-4 leukemia
# SK-MEL-2 melanoma = test system: SK-MEL-2 melanoma
# ACHN renal = test system: ACHN renal
# HCT-15 colon = test system: HCT-15 colon
# SW-620 colon = test system: SW-620 colon
# OVCAR-3 ovarian = test system: OVCAR-3 ovarian
# CCRF-CEM leukemia = test system: CCRF-CEM leukemia
# PC-3 prostate = test system: PC-3 prostate
# SK-MEL-28 melanoma = test system: SK-MEL-28 melanoma
# UACC-257 melanoma = test system: UACC-257 melanoma
# CAKI-1 renal = test system: CAKI-1 renal
# SK-MEL-5 melanoma = test system: SK-MEL-5 melanoma
# HOP-62 NSCLC = test system: HOP-62 NSCLC
# A498 renal = test system: A498 renal
# EKVX NSCLC = test system: EKVX NSCLC
# IGROV1 ovarian = test system: IGROV1 ovarian
# BT-549 breast = test system: BT-549 breast
# HL-60(TB) leukemia = test system: HL-60(TB) leukemia
# MCF7 breast = test system: MCF7 breast
# A549 NSCLC = test system: A549 NSCLC
# U251 CNS = test system: U251 CNS
# MALME-3M melanoma = test system: MALME-3M melanoma
# COLO 205 colon = test system: COLO 205 colon
# RXF 393 renal = test system: RXF 393 renal
# NCI-H460 lung = test system: NCI-H460 lung
# K-562 leukemia = test system: K-562 leukemia
# HCT-116 colon = test system: HCT-116 colon
# MDA-MB-231 breast = test system: MDA-MB-231 breast
# KM12 colon = test system: KM12 colon
# OVCAR-5 ovarian = test system: OVCAR-5 ovarian
# NCI-H23 lung = test system: NCI-H23 lung
# OVCAR-4 ovarian = test system: OVCAR-4 ovarian
# HS 578T breast = test system: HS 578T breast
# HT29 colon = test system: HT29 colon
# SF-295 CNS = test system: SF-295 CNS
# SNB-19 CNS = test system: SNB-19 CNS
# DU-145 prostate = test system: DU-145 prostate
# SNB-75 CNS = test system: SNB-75 CNS
# UO-31 renal = test system: UO-31 renal
# MDA-MB-435 = test system: MDA-MB-435
# NCI/ADR-RES ovarian = test system: NCI/ADR-RES ovarian
# NCI-H226 lung = test system: NCI-H226 lung
# HCC-2998 colon = test system: HCC-2998 colon
structure (smiles),measurement,setting,value
CN(C)CCOc1ccc(C(=O)C2[C@H](c3ccc(Cl)cc3)[C@@H](c3ccccc3)NC23C(=O)Nc2ccccc23)cc1 (stereo partly specified),GI50,T-47D breast,9.41 µM
same,TGI,T-47D breast,> 18.5 µM
same,GI50,NCI-H522 lung,7.52 µM
same,TGI,NCI-H522 lung,> 18.5 µM
same,GI50,SF-268 CNS,9.62 µM
same,TGI,SF-268 CNS,> 18.5 µM
same,GI50,SK-OV-3 ovarian,> 18.5 µM
same,TGI,SK-OV-3 ovarian,> 18.5 µM
same,GI50,OVCAR-8 ovarian,4.56 µM
same,TGI,OVCAR-8 ovarian,11 µM
same,GI50,M14 melanoma,2.89 µM
same,TGI,M14 melanoma,5.69 µM
same,GI50,HOP-92 NSCLC,3.03 µM
same,TGI,HOP-92 NSCLC,12.7 µM
same,GI50,SF-539 CNS,3.14 µM
same,TGI,SF-539 CNS,6.01 µM
same,GI50,LOX IMVI melanoma,2.62 µM
same,TGI,LOX IMVI melanoma,5.02 µM
same,GI50,UACC-62 melanoma,2.88 µM
same,TGI,UACC-62 melanoma,5.59 µM
same,GI50,TK-10 renal,> 18.5 µM
same,TGI,TK-10 renal,> 18.5 µM
same,GI50,SN12C renal,10.6 µM
same,TGI,SN12C renal,> 18.5 µM
same,GI50,RPMI-8226 leukemia,3.95 µM
same,TGI,RPMI-8226 leukemia,11.3 µM
same,GI50,MDA-MB-468 breast,2.91 µM
same,TGI,MDA-MB-468 breast,5.74 µM
same,GI50,786-0 renal,3.14 µM
same,TGI,786-0 renal,5.83 µM
same,GI50,MOLT-4 leukemia,3.3 µM
same,TGI,MOLT-4 leukemia,8.62 µM
same,GI50,SK-MEL-2 melanoma,3.6 µM
same,TGI,SK-MEL-2 melanoma,7.11 µM
same,GI50,ACHN renal,4.33 µM
same,TGI,ACHN renal,11.7 µM
same,GI50,HCT-15 colon,3.68 µM
same,TGI,HCT-15 colon,8.25 µM
same,GI50,SW-620 colon,3.13 µM
same,TGI,SW-620 colon,6.05 µM
same,GI50,OVCAR-3 ovarian,3.41 µM
same,TGI,OVCAR-3 ovarian,7.55 µM
same,GI50,CCRF-CEM leukemia,3.98 µM
same,TGI,CCRF-CEM leukemia,13.2 µM
same,GI50,PC-3 prostate,3.77 µM
same,TGI,PC-3 prostate,11.2 µM
same,GI50,SK-MEL-28 melanoma,3.05 µM
same,TGI,SK-MEL-28 melanoma,5.62 µM
same,GI50,UACC-257 melanoma,3.38 µM
same,TGI,UACC-257 melanoma,7.54 µM
same,GI50,CAKI-1 renal,4.5 µM
same,TGI,CAKI-1 renal,> 18.5 µM
same,GI50,SK-MEL-5 melanoma,3.11 µM
same,TGI,SK-MEL-5 melanoma,5.99 µM
same,GI50,HOP-62 NSCLC,6.6 µM
same,TGI,HOP-62 NSCLC,> 18.5 µM
same,GI50,A498 renal,> 18.5 µM
same,TGI,A498 renal,> 18.5 µM
same,GI50,EKVX NSCLC,3.03 µM
same,TGI,EKVX NSCLC,6.21 µM
same,GI50,IGROV1 ovarian,10.4 µM
same,TGI,IGROV1 ovarian,> 18.5 µM
same,GI50,BT-549 breast,> 18.5 µM
same,TGI,BT-549 breast,> 18.5 µM
same,GI50,HL-60(TB) leukemia,4.11 µM
same,TGI,HL-60(TB) leukemia,11.2 µM
same,GI50,MCF7 breast,3.18 µM
same,TGI,MCF7 breast,6.32 µM
same,GI50,A549 NSCLC,5.95 µM
same,TGI,A549 NSCLC,> 18.5 µM
same,GI50,U251 CNS,3.13 µM
same,TGI,U251 CNS,6.07 µM
same,GI50,MALME-3M melanoma,2.92 µM
same,TGI,MALME-3M melanoma,5.48 µM
same,GI50,COLO 205 colon,3.58 µM
same,TGI,COLO 205 colon,6.93 µM
same,GI50,RXF 393 renal,2.88 µM
same,TGI,RXF 393 renal,12 µM
same,GI50,NCI-H460 lung,3.29 µM
same,TGI,NCI-H460 lung,6.17 µM
same,GI50,K-562 leukemia,3.86 µM
same,TGI,K-562 leukemia,11.7 µM
same,GI50,HCT-116 colon,2.96 µM
same,TGI,HCT-116 colon,5.51 µM
same,GI50,MDA-MB-231 breast,3.55 µM
same,TGI,MDA-MB-231 breast,10.2 µM
same,GI50,KM12 colon,3.56 µM
same,TGI,KM12 colon,7.3 µM
same,GI50,OVCAR-5 ovarian,4.41 µM
same,TGI,OVCAR-5 ovarian,> 18.5 µM
same,GI50,NCI-H23 lung,3.95 µM
same,TGI,NCI-H23 lung,9.94 µM
same,GI50,OVCAR-4 ovarian,8.79 µM
same,TGI,OVCAR-4 ovarian,> 18.5 µM
same,GI50,HS 578T breast,3.88 µM
same,TGI,HS 578T breast,> 18.5 µM
same,GI50,HT29 colon,3.32 µM
same,TGI,HT29 colon,7.13 µM
same,GI50,SF-295 CNS,3.22 µM
same,TGI,SF-295 CNS,6.52 µM
same,GI50,SNB-19 CNS,8.07 µM
same,TGI,SNB-19 CNS,> 18.5 µM
same,GI50,DU-145 prostate,5.78 µM
same,TGI,DU-145 prostate,> 18.5 µM
same,GI50,SNB-75 CNS,4.58 µM
same,TGI,SNB-75 CNS,> 18.5 µM
same,GI50,UO-31 renal,6.9 µM
same,TGI,UO-31 renal,> 18.5 µM
same,GI50,MDA-MB-435,3.04 µM
same,TGI,MDA-MB-435,5.99 µM
same,GI50,NCI/ADR-RES ovarian,5.9 µM
same,TGI,NCI/ADR-RES ovarian,> 18.5 µM
same,GI50,NCI-H226 lung,7.97 µM
same,TGI,NCI-H226 lung,> 18.5 µM
same,GI50,HCC-2998 colon,3.07 µM
same,TGI,HCC-2998 colon,5.76 µM
